Assay results published in patent US10508090B2, “Sulfonamides as GPR40- and GPR120-agonists” (DOMPÉ FARMACEUTICI S.P.A., priority 2016, dated 2019).

Experiments:
STC-1 cells = test: In vitro GLP-1 secretion in STC-1 cells (ELISA); type: cell-based, murine; conditions: for fold induction at 30 µM: Mus musculus, STC-1, 0.5 h, read-out: GLP-1 RELEASE STC-1, fold of increase over DMSO
Protocol: (§1) GPR120/40 Activation: In Vitro GLP-1 Secretion
(§2) 2×10^5 STC-1 cells were seeded in a 12-plate and 24 hours later were treated with selected compounds. 1×10^6 NCI-H716 cells were differentiated in matrigel-coated 12-plate and treated 48 h hours later.
(§3) The day of the experiment, wells were washed once with 1 ml of PBS and then cells were stimulated with 0.5 ml of DMEM (w/o serum, w/o phenol-red) containing 30 μM of selected compounds in STC1 and 100 μM in differentiated NCIH716 for 30 minutes. DMSO has been used as negative control, α-linolenic acid (ALA) (endogenous agonist) as positive control. After stimulations, supernatants were collected, centrifuged at 4000 rpm for 4′ at 4° C., and used for the GLP1 detection by ELISA.

NCI-H716 cells = test: In vitro GLP-1 secretion in differentiated NCI-H716 cells (ELISA); type: cell-based, human; conditions: for fold induction at 100 µM: Homo sapiens, NCI-H716, 0.5 h, compound at 100 μM for 30 minutes, differentiated NCI-H716 cells, read-out: GLP-1 RELEASE NCI, fold of increase over DMSO
Protocol: as §1, §2, §3

human GPR120 = biological target: T1, human GPR120 (Homo sapiens, UniProt Q5NUL3); test: In vitro Ca2+ mobilization, CHO-k1 cells stably expressing human GPR120; type: cell-based; conditions: for AC50: intracellular calcium, CHO-k1 cells expressing human GPR120, read-out: Ca2+ hGPR120 AC50
T1 construct: expressed in transfected cells; host or cells: CHO-k1
T1 sequence (Q5NUL3 1-361): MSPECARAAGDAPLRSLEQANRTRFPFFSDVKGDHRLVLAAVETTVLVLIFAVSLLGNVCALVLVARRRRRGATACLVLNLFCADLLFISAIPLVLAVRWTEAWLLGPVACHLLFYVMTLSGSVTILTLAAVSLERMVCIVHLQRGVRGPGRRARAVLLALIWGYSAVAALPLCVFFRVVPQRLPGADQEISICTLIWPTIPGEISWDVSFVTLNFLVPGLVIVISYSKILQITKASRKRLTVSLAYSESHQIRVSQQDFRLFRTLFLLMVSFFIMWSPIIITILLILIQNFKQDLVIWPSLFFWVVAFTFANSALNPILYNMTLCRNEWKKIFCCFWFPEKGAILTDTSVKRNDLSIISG
Protocol: (§4) GPR120/40 Activation: In Vitro Ca^2+ Mobilization
(§5) The activation of GPR120/40 by all compounds was determined by measuring changes in intracellular calcium levels using a Ca^2+ sensitive fluorescent dye.
(§6) The experiments were performed using CHO-k1 cells stably expressing the human GPR120 or GPR40. Cells were seeded 10000 cells/well in 384-plates in complete medium and grown overnight at 37° C., 5% CO2. 24 h after seeding, cell culture media was removed and cells were loaded with the fluorescent Ca^2+ indicator (Fluo-8 NW dye in Tyrode's buffer). Dye-loaded cell plates were incubated for 1 h at room temperature under a yellow light sodium lamp.
(§7) Cell were treated with test compounds and controls at 10, 30 and 60 μM. The kinetic response was monitored over a period of 7 minutes (using FLIPRTETRA system). A second injection of 3× concentrated reference agonist at ˜EC50 were then administered to cells and the signal of the emitted fluorescence was measured over a period of additional 3 minutes. The agonist effect is expressed as a percentage of activation, with 100% activation being a result in which the Response Values of the test wells reach a level identical to the one of the Stimulator Controls (alpha linolenic acid reference agonist EC100). 0% activation is a result in which the Response Values of the test wells reach a level identical to the one of the Neutral Controls (assay buffer) in the AGO_KRV (Agonist Kinetic Response Value) response value.

human GPR40 = biological target: T2, human GPR40 (Homo sapiens, UniProt O14842); test: In vitro Ca2+ mobilization, CHO-k1 cells stably expressing human GPR40; type: cell-based; conditions: for AC50: read-out: Ca2+ hGPR40 AC50
T2 construct: expressed in transfected cells; host or cells: CHO-k1
T2 sequence (O14842 whole entry): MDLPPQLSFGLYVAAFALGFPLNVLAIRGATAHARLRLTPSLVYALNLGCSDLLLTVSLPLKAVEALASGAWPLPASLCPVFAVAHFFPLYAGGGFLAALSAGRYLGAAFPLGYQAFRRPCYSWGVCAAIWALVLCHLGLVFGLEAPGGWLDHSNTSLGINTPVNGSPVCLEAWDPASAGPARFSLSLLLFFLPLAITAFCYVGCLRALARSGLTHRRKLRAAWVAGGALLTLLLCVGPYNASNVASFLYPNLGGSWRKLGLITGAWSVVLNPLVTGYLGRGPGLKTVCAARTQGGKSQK
Protocol: as §4, §5, §6, §7

[1] = compound at 30 μM for 30 minutes, STC-1 cells
[2] = intracellular calcium, CHO-k1 cells expressing human GPR40

| SMILES | fold induction at 30 µM (STC-1 cells; [1]) | fold induction at 100 µM (NCI-H716 cells) | agonistic activity on GPR120 (AC50 in the calcium mobilization assay), in words (human GPR120) | AC50 (human GPR120) [µM] | agonistic activity on GPR40 (AC50 in the calcium mobilization assay), in words (human GPR40) | AC50 (human GPR40; [2]) [µM] | GLP-1 secretion in STC1 (murine) cells, in words (STC-1 cells) | GLP-1 secretion in NCI-H716 (human) cells, in words (NCI-H716 cells) | GLP-1 RELEASE STC-1, fold of increase over DMSO (STC-1 cells; [1]) [fold] | Ca2+ hGPR40 AC50 (human GPR40; [2]) |
| --- | --- | --- | --- | --- | --- | --- | --- | --- | --- | --- |
| CC/C=C\C/C=C\C/C=C\CCCCCCCC(=O)O [ALA, α-linolenic acid, reference compound] | 6.61 | 1.52 |  |  |  |  |  |  |  |  |
| Cc1cc(F)cc(C)c1NS(=O)(=O)c1cccc(CCCCCCC(=O)O)c1 [Example 1, 7-(3-(N-(4-fluoro-2,6-dimethylphenyl)sulfamoyl)phenyl)heptanoic acid] | 1.87 ± 0.5 | 1.08 ± 0.1 | low microMolar range | 5.24 | low microMolar range | 140 | efficacious | efficacious |  |  |
| Cc1cc(C)c(CNS(=O)(=O)c2cccc(CCCCCCC(=O)O)c2)c(C)c1 [Example 2, 7-(3-(N-(2,4,6-trimethylbenzyl)sulfamoyl)phenyl)heptanoic acid] | 3.2 ± 0.47 | 2.1 ± 0.52 | low microMolar range | 7.09 | low microMolar range | 11.2 | efficacious | efficacious |  |  |
| Cc1cc(C(C)C)cc(C)c1NS(=O)(=O)c1cccc(CCCCCCC(=O)O)c1 [Example 3, 7-(3-(N-(4-isopropyl-2,6-dimethylphenyl)sulfamoyl)phenyl)heptanoic acid] | 2.7 ± 0.31 | 2.5 ± 0.11 | low microMolar range | 1.98 | low microMolar range | 12.9 | efficacious | efficacious |  |  |
| Cc1cc(Cl)cc(C)c1NS(=O)(=O)c1cccc(CCCCCCC(=O)O)c1 [Example 4, 7-(3-(N-(4-chloro-2,6-dimethylphenyl)sulfamoyl)phenyl)heptanoic acid] | 4.1 ± 0.54 | 1.92 ± 0.57 | low microMolar range | 4.36 | low microMolar range | 41.3 | efficacious | efficacious |  |  |
| Cc1cc(N(C)C)cc(C)c1NS(=O)(=O)c1cccc(CCCCCCC(=O)O)c1 [Example 5, 7-(3-(N-(4-(dimethylamino)-2,6-dimethylphenyl)sulfamoyl)phenyl)heptanoic acid] | 4 ± 0.27 | 1.92 ± 0.14 |  | 7.9 |  | 10.4 |  |  |  |  |
| Cc1cc(C(F)(F)F)cc(C)c1NS(=O)(=O)c1cccc(CCCCCCC(=O)O)c1 [Example 6, 7-(3-(N-(2,6-dimethyl-4-(trifluoromethyl)phenyl)sulfamoyl)phenyl)heptanoic acid] | 4.2 ± 0.45 | 2.54 ± 0.52 | low microMolar range | 6 | low microMolar range | 11.7 | efficacious | efficacious |  |  |
| Cc1cc(Br)cc(C)c1NS(=O)(=O)c1cccc(CCCCCCC(=O)O)c1 [Example 7, 7-(3-(N-(4-bromo-2,6-dimethylphenyl)sulfamoyl)phenyl)heptanoic acid] | 1.8 ± 0.24 | 1.9 ± 0.15 | low microMolar range | 5.72 | low microMolar range | 19.8 | efficacious | efficacious |  |  |
| COc1cc(C)c(NS(=O)(=O)c2cccc(CCCCCCC(=O)O)c2)c(C)c1 [Example 8, 7-(3-(N-(4-methoxy-2,6-dimethylphenyl)sulfamoyl)phenyl)heptanoic acid] | 1.7 ± 0.12 | 2.1 ± 0.08 |  | 11.7 |  | 4.7 |  |  |  |  |
| Cc1cc(F)c(-c2ccccc2)cc1NS(=O)(=O)c1cccc(CCCCCCC(=O)O)c1 [Example 9, 7-(3-(N-(6-fluoro-4-methyl-[1,1′-biphenyl]-3-yl)sulfamoyl)phenyl)heptanoic acid] | 14.5 | 6.2 | low microMolar range | 11.2 | low microMolar range | 8.9 | efficacious | efficacious | 14.5 ± 1.24 |  |
| Cc1cc(F)cc(-c2ccccc2)c1NS(=O)(=O)c1cccc(CCCCCCC(=O)O)c1 [Example 10, 7-(3-(N-(5-fluoro-3-methyl-[1,1′-biphenyl]-2-yl)sulfamoyl)phenyl)heptanoic acid] | 4.7 | 2.5 | low microMolar range | 16.5 | low microMolar range | 12.8 | efficacious | efficacious |  |  |
| Cc1cc(C)c(NS(=O)(=O)c2cccc(CCCCCC(=O)O)c2)c(C)c1 [Example 11, 6-{3-[(2,4,6-trimethylphenyl)sulfamoyl]phenyl}hexanoic acid] | 1.71 ± 0.21 | 1.87 ± 0.27 | low microMolar range | 6.2 | low microMolar range |  | efficacious | efficacious |  | Inactive |
